Measured values taken from patent US20150258139A1, “METHODS FOR TREATMENT OF CANCER USING LIPOPLATIN” (REGULON, INC., priority 2012, published 2015).
“And” between values parts separate entries of the source, which are not always exact repeats. Equal values may be shown once. Read-outs that look alike come from different tables or passages of the source.

How the values were obtained:
F98 glioma tumor [1] = test: Mean survival time of F98 glioma bearing Fischer rats, platinum drugs combined with Gamma Knife irradiation; format: in vivo
F98 glioma tumor [2] = test system: F98 glioma tumor
F98 glioma tumor [3] = format: in vivo; details: drug alone
[4] = test system: metastatic colorectal cancer; details: cited from earlier work
pancreatic cancer = details: gemcitabine alone; cited from earlier work
[5] = test system: Nonmetastatic Castrate-Resistant Prostate Cancer; details: monotherapy (Ogita et al); cited from earlier work
[6] = IA + BBBD, 24 h after administration, ± SD
[7] = IA + BBBD, 24 h after administration, ± SD, listed as carboplatin
[8] = IA, 24 h after administration, ± SD
[9] = IA, 24 h after administration, ± SD, listed as carboplatin
[10] = IV, 24 h after administration, ± SD

N.N.O=C([O-])C1(C(=O)[O-])CCC1.[Pt+2] [Carboplatin]
mean survival time (F98 glioma tumor [1]; IA + opening of BBB + radiation 15 Gy, sham group+IR 34.5±2.2 days): 38.0 ± 6.4 days | increase of mean survival time compared to the sham IR group (F98 glioma tumor [1]; IA + radiation 15 Gy): 10.7 days | mean survival time (F98 glioma tumor [1]; IA + radiation 15 Gy, sham group+IR 34.0±6.1 days): 44.7 ± 6.1 days | increase of accumulation in cytoplasm of tumor cells by opening of the BBB (F98 glioma tumor [2]; IA + BBBD vs IA): 4.7 fold | increase of accumulation in nucleus of tumor cells by opening of the BBB (F98 glioma tumor [2]; IA + BBBD vs IA): 18 fold | Platinum in brain tumor (F98 glioma tumor [2]; [6]): 987 ± 621 ng of platin/g tissue | Platinum in cytoplasm of tumor cells (F98 glioma tumor [2]; [6]): 398 ± 191 ng of platin/g tissue | Platinum in healthy contra lateral brain (F98 glioma tumor [2]; [6]): 242 ± 59 ng of platin/g tissue | Platinum in nucleus of tumor cells (F98 glioma tumor [2]; [6]): 160 ± 85 ng of platin/g tissue | Platinum in cytoplasm of tumor cells (F98 glioma tumor [2]; [7]): 398±191 ng of platin/g tissue | Platinum in nucleus of tumor cells (F98 glioma tumor [2]; [7]): 160±85 ng of platin/g tissue | effect of the IA route on tumor uptake and specificity (F98 glioma tumor [2]; IA vs IV, tumor vs contra lateral brain): improved both the tumor uptake and specificity | Platinum in brain tumor (F98 glioma tumor [2]; [8]): 469 ± 241 ng of platin/g tissue | Platinum in cytoplasm of tumor cells (F98 glioma tumor [2]; [8]): 84 ± 61 ng of platin/g tissue | Platinum in healthy contra lateral brain (F98 glioma tumor [2]; [8]): 70 ± 48 ng of platin/g tissue | Platinum in nucleus of tumor cells (F98 glioma tumor [2]; [8]): 9 ± 7 ng of platin/g tissue | Platinum in cytoplasm of tumor cells (F98 glioma tumor [2]; [9]): 84±61 ng of platin/g tissue | Platinum in nucleus of tumor cells (F98 glioma tumor [2]; [9]): 9±7 ng of platin/g tissue | uptake in the nucleus of cancer cells (F98 glioma tumor [2]; IV route): ~4 ng platinum/g tissue | Platinum in brain tumor (F98 glioma tumor [2]; [10]): 145 ± 27 ng of platin/g tissue | Platinum in cytoplasm of tumor cells (F98 glioma tumor [2]; [10]): 13 ± 4 ng of platin/g tissue | Platinum in healthy contra lateral brain (F98 glioma tumor [2]; [10]): 27 ± 2 ng of platin/g tissue | Platinum in nucleus of tumor cells (F98 glioma tumor [2]; [10]): 0.5 ± 0.8 ng of platin/g tissue | mean survival time (F98 glioma tumor [3]; IA + opening BBB): 33.7 ± 2.0 days | mean survival time (F98 glioma tumor [3]; IA, sham group 22.5±0.6 days): 31.0 ± 3.6 days | mean survival time (F98 glioma tumor [3]; IV, sham group 22.6±1.2 days): did not significantly increase

N.N.[Cl][Pt][Cl] [Cisplatin]
Platinum in cytoplasm of tumor cells (F98 glioma tumor [2]; rat, in vivo, iv): 251 ± 48 ng of platin/g tissue | Platinum in nucleus of tumor cells (F98 glioma tumor [2]; rat, in vivo, iv): 67 ± 14 ng of platin/g tissue | uptake in the nucleus of cancer cells (F98 glioma tumor [2]; rat, in vivo, iv): 67±14 ng platinum/g tissue | mean survival time (F98 glioma tumor [3]; IA, sham group 22.5±0.6 days): 13.3 ± 0.1 days | mean survival time (F98 glioma tumor [3]; IV, sham group 22.6±1.2 days): 18.1 ± 0.9 days

O=C1[O][Pt]2([NH][C@@H]3CCCC[C@H]3[NH]2)[O]C1=O [Oxaliplatin]
objective responses, % of patients ([4]; 2 small trials of first-line monotherapy (Wiseman et al)): 20% and 24% | response rate ([4]; first line monotherapy, metastatic colorectal cancer patients): 24% | objective responses, % of patients ([4]; monotherapy as second-line option (Wiseman et al)): about 10% | overall response rate ([4]; monotherapy, second line, colorectal cancer, Japanese study (Boku et al)): 9% | uptake in the nucleus of cancer cells (F98 glioma tumor [2]; IV route): 78±8 ng platinum/g tissue | Platinum in cytoplasm of tumor cells (F98 glioma tumor [2]; [10]): 292 ± 128 ng of platin/g tissue | Platinum in nucleus of tumor cells (F98 glioma tumor [2]; [10]): 78 ± 8 ng of platin/g tissue | mean survival time (F98 glioma tumor [3]; IA, sham group 22.5±0.6 days): 22.0 ± 4.7 days | mean survival time (F98 glioma tumor [3]; IV, sham group 22.6±1.2 days): did not significantly increase

Nc1ccn([C@@H]2O[C@H](CO)[C@@H](O)C2(F)F)c(=O)n1 [gemcitabine]
one-year survival (pancreatic cancer): 17%

Avastin®: humanized monoclonal antibody that binds to and inhibits human vascular endothelial growth factor (VEGF)
efficacy [5]: marginal efficacy
